Common to all, as to assay type: cell-based
The test system of experiment [1] is Jatropha curcas somatic embryo explants. Briefly: Re-initiation of somatic embryogenesis from matured somatic embryos on solid DGA and derivative media. As to conditions: for production of secondary somatic embryos and embryogenic calli: supplementation in solid DGA-type medium. How it is done:
Somatic embryos were matured in 2,4-D-free liquid MS medium and hypocotyl-root apex tissues were excised from somatic embryos larger than 0.5 cm. Those smaller than 0.5 cm were cultured intact. The explants were cultured in various DGA or its derivative solid medium. […] 2,4-D and kinetin could be added as optional supplements (not shown).

The subject of experiment [2] is Jatropha curcas embryogenic calli. The experiment can be described thus: Embryogenic liquid suspension culture. To be noted: KNO3 increased to 1.9 g/l to 3.8 g/l. How it is done:
FIGS. 5A-5D show embryogenic liquid suspension culture. About 50 mg embryogenic calli produced in solid DGA medium were inoculated in 20 ml modified DGA liquid media. Embryos larger than 2 mm were removed before inoculation. Subculture was done every two weeks. Photos were taken after 2 subcultures. FIG. 5A: 20 g/l sucrose, 1 g/l glutamine, 0.5 g/l asparagine, no 2,4-D. FIG. 5B: 20 g/l sucrose, 1 g/l glutamine, 0.5 g/l asparagine, 0.2 g/1 2,4-D. FIG. 5C: 30 g/l sucrose, 1 g/l glutamine, 0.5 g/l asparagine, 0.2 g/1 2,4-D. FIG. 5D: 20 g/l sucrose, 1 g/l glutamine, 0.5 g/l asparagine, 1 g/1 2,4-D. Arrow indicates the non-embryogenic ball-shaped calli. Scale bar represents 1 cm.
Liquid cultures were performed in 65 mm plastic cylinder containers or 250 ml glass conical flasks that were placed in shakers set at 80 rpm, 28° C. constant temperature and 16-8 hours day-light cycles.
Effects 2,4-D and carbon source on establishment of somatic embryogenic liquid suspension culture was investigated. […] At sucrose level ranging from 10-30 g/l, continued culture lead to maturation of the somatic embryo with no new initiation of secondary embryos (FIG. 5A). The somatic embryos thus produced share good synchrony and are excellent materials for re-induction of TIISEs (Refer to Example 13). […] The suspension cultures were stable for months if large embryos were removed. Further, sucrose concentration needs to be reduced below about 20 g/l (compare FIGS. 5B and 5C).

Experiment [3] has as its system Jatropha curcas somatic embryos (TISEs). Briefly: Effect of GA3 on germination of somatic embryos.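 As to all read-outs here: groups of 20–30 TISEs per medium were moved onto each medium and scored for germination traits, with GA3-free media as the comparison.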 As to conditions: for Hypocotyl Extension % / Root Growth % / Viable Germination SE % / Hypocotyl Extension SE Count / Root Growth SE Count / Viable Germination SE Count: three weeks; for Hypocotyl Extension SE Count / Root Growth SE Count / Viable Germination SE Count: 30 explants.

Experiment [4] concerns Jatropha curcas somatic embryos. Briefly: Effect of abscisic acid in maturation media on germination. As to conditions: ABA 0-5 mg/l in DGA or EGA media or variants. How it is done:
To further explore methods to improve germination, abscisic acid (ABA) between 0-5 mg/l was supplemented in DGA or EGA media or their variants with 10-30 g/l sucrose and 20-60 g/1 maltose. […] Examples of the effects are shown in Table 10, where 20-30 TISEs were transferred to various media listed below. Except in ¼ strength MS medium, few somatic embryos germinated without GA3. […] Reducing the strength of basal salts was likewise beneficial to germination of somatic embryos.

Experiment [5] concerns Jatropha curcas immature embryo and endosperm explants. Briefly: Effect of kinetin on TISE and TIISE formation. To be noted: for TIISE (%) >5 SE / TIISE (%) >10 SE / TIISE (%) Total / TISE (%): 5 mg/l 2,4-D, 6 weeks, then DGA 4 weeks. How it is done:
Developing fruits were surface-sterilized and dissected to yield 120 immature embryos that were shorter than 1.5 cm in length. After cutting into halves, the explants were cultured in media with a series of kinetin concentrations. On the 5th day, the endosperm tissues were separated from the embryos, further reduced into small pieces of about 0.25 cm^2 and transferred to the fresh medium with the same kinetin concentrations. After one subcultures (6 weeks in total), the calli were transferred to DGA medium and cultured for one month. Twenty immature embryos were used in each treatment. It was observed that TISEs were almost exclusively formed on endosperm tissues where the embryos had been detached after three's culture.

Setting [6] is: Full strength MS salt and B5 vitamins, GA3 2 mg/L.
[7] abbreviates: Full strength MS salt and B5 vitamins, GA3 3 mg/L.
Setting [8] is: ¼ Strength MS salt and B5 vitamins, GA3 2 mg/L.
Where [9] appears, read: ¼ Strength MS salt and B5 vitamins, GA3 3 mg/L.
The mark [10] stands for this setting: ½ Strength MS salt and B5 vitamins, GA3 2 mg/L.
The mark [11] stands for this setting: ½ Strength MS salt and B5 vitamins, GA3 3 mg/L.

As for `NC(=O)C[C@H](N)C(=O)O` [asparagine], the “production of secondary somatic embryos and embryogenic calli” value in experiment [1] is “greatly improved production of secondary somatic embryos and embryogenenic calli”.
Take `O=[N+]([O-])[O-].[K+]` [KNO3]: in experiment [1] (increase in KNO3 in modified DGA solid medium), the “embryo differentiation and maturation” value is on record as “favored embryo differentiation but inhibited maturation”. For the same molecule, in experiment [2], the “maintenance of liquid suspension culture” value is “facilitated maintaining the liquid suspension culture at early stages of embryogenesis”.
Take `NC(=O)CC[C@H](N)C(=O)O` [glutamine]: the “production of secondary somatic embryos and embryogenic calli” value in experiment [1] was “greatly improved production of secondary somatic embryos and embryogenenic calli”.
With `C=C1C[C@]23C[C@@]1(O)CC[C@H]2[C@@]12C=C[C@H](O)[C@@](C)(C(=O)O1)[C@H]2[C@@H]3C(=O)O` [GA3, gibberellic acid], in experiment [3] (setting [6]), the “Hypocotyl Extension %” value was 30%, the “Root Growth %” value was determined as 53%, the “Viable Germination SE %” value was 30% and the “Hypocotyl Extension SE Count” value turned out to be 16. Further, in experiment [3] (setting [6]), the “Root Growth SE Count” value stood at 16 and the “Viable Germination SE Count” value was found to be 9. For the same molecule, in experiment [3] (setting [7]), the “Hypocotyl Extension %” value turned out to be 44%, the “Root Growth %” value turned out to be 37%, the “Viable Germination SE %” value was 5% and the “Hypocotyl Extension SE Count” value amounted to 16. Besides, in experiment [3] (setting [7]), the “Root Growth SE Count” value stood at 11 and the “Viable Germination SE Count” value was found to be 2. The “germination of somatic embryos” value in experiment [3] (many media tested) is recorded as “significantly improved germination in many media tested”. Besides, in experiment [3] (setting [8]), the “Hypocotyl Extension %” value was 32%, the “Root Growth %” value was 43%, the “Viable Germination SE %” value amounted to 19% and the “Hypocotyl Extension SE Count” value was found to be 14. Moreover, in experiment [3] (setting [8]), the “Root Growth SE Count” value was determined as 13 and the “Viable Germination SE Count” value is 6. For the same molecule, in experiment [3] (setting [9]), the “Hypocotyl Extension %” value is reported as 26%, the “Root Growth %” value turned out to be 47%, the “Viable Germination SE %” value was 8% and the “Hypocotyl Extension SE Count” value is 12. Moreover, in experiment [3] (setting [9]), the “Root Growth SE Count” value stood at 14 and the “Viable Germination SE Count” value was found to be 2. Further, in experiment [3] (setting [10]), the “Hypocotyl Extension %” value worked out at 34%, the “Root Growth %” value is 27%, the “Viable Germination SE %” value came out at 21% and the “Hypocotyl Extension SE Count” value turned out to be 9. In experiment [3] (setting [10]), the “Root Growth SE Count” value was 8 and the “Viable Germination SE Count” value worked out at 7. In addition, in experiment [3] (setting [11]), the “Hypocotyl Extension %” value is on record as 26%, the “Root Growth %” value came to 53%, the “Viable Germination SE %” value is given as 23% and the “Hypocotyl Extension SE Count” value worked out at 14. In addition, in experiment [3] (setting [11]), the “Root Growth SE Count” value was determined as 16 and the “Viable Germination SE Count” value was found to be 6.
Consider `CC1=CC(=O)CC(C)(C)[C@@]1(O)/C=C/C(C)=C\C(=O)O` [abscisic acid], for which the plantlet abnormality result in experiment [4] is recorded as “plantlet abnormality was apparently increased”. The improvement of germination result in experiment [4] (germination in MS medium) is listed as “Improvement of germination in MS medium was not observed”.
Take `c1coc(CNc2ncnc3[nH]cnc23)c1` [Kinetin, kinetin]: in experiment [5] (Kinetin 0.05 mg/l), the “TIISE (%) >5 SE” value came out at 15%, the “TIISE (%) >10 SE” value was found to be 0%, the “TIISE (%) Total” value turned out to be 25% and the “TISE (%)” value is recorded as 35%. In addition, in experiment [5] (Kinetin 0.1 mg/l), the “TIISE (%) >5 SE” value came to 15%, the “TIISE (%) >10 SE” value came out at 5%, the “TIISE (%) Total” value turned out to be 30% and the “TISE (%)” value is 35%. In experiment [5] (Kinetin 0.2 mg/l), the “TIISE (%) >5 SE” value worked out at 15%, the “TIISE (%) >10 SE” value was 0%, the “TIISE (%) Total” value was 30% and the “TISE (%)” value came to 40%. In addition, in experiment [5] (Kinetin 0.5 mg/l), the “TIISE (%) >5 SE” value is given as 10%, the “TIISE (%) >10 SE” value was found to be 5%, the “TIISE (%) Total” value is on record as 20% and the “TISE (%)” value came to 25%. Moreover, in experiment [5] (Kinetin 1 mg/l), the “TIISE (%) >5 SE” value turned out to be 0%, the “TIISE (%) >10 SE” value stood at 0%, the “TIISE (%) Total” value is recorded as 15% and the “TISE (%)” value is recorded as 45%. Also, in experiment [5] (kinetin 0-1 mg/l), the TIISEs formation result is listed as “appeared to negatively affect TIISEs formation” and the “induction of TISEs” value is recorded as “played little role in induction of TISEs”.

The record behind these values is patent US8691576B2, “Regeneration and mass propagation of Jatropha curcas through somatic embryogenesis” (Joil (S) Pte Ltd., priority 2008, dated 2014).
